{
  "source": "patent US20080199517A1",
  "about": "“Composition and a process thereof” (priority 2007, published 2008)",
  "system": "castrated male adolescent rats",
  "experiment": "Anabolic activity in castrated rats: organ weight",
  "assay_type": "in vivo, rats of Swiss Wistar strain",
  "conditions": "castrated animals, result in words",
  "description": "Male Adolescent rats of Swiss Wistar strain of body weight 55 gms are chosen for this experiment and are castrated. The castrated groups are divided into 2 groups. • 1. Control group castrated animals n=6 • 2. Drug treated castrated animals treated with test compound at 25 mg/kg n=6\nBoth the groups are fed ad libitum food and water and observed for 28 days. Their serum at the beginning of the experiment and at the end of the experiment are drawn and checked for Total testosterone, and free testosterone. The animals are sacrificed at the end of the experiment and seminal vesicle; ventral Prostate and Levator Ani are removed and weighed. These organ weights are compound with the control animals.",
  "data": [
    {"smiles": "CC(COC1OC(CO)C(O)C(O)C1O)C(C)CC1(O)CC2CC3C4CC=C5CC(OC6OC(CO)C(O)C(O)C6OC6OC(C)C(O)C(O)C6O)CCC5(C)C4CCC3(C)C2C1C", "note": "(stereo not shown) [saponin of structural formula I]", "values": [
      {"measurement": "anabolic activity", "result": "does not showed any activity"}
    ]}
  ]
}
